According to patent US8952024B2, “Herbicidal pyrimidone derivatives” (E I du Pont de Nemours and Company, priority 2009, dated 2015):

Legend:
Assay in all cases: Test B pre-/postemergence plant response
Assay type in all cases: in vivo
Details in all cases: Postemergence
kochia (Kochia scoparia) = system: kochia (Kochia scoparia)
In short: (§1)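 Response scores were assigned visually after 13 to 15 days in a greenhouse, comparing treated pots with controls on a 0–100 scale where 100 denotes complete control. Preemergence treatments went onto freshly seeded loam/sand soil; postemergence treatments onto plants 2 to 18 cm tall.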

[1] = system: giant foxtail (Setaria faberii)
In short: as §1

[2] = system: johnsongrass (Sorghum halepense)
In short: as §1

[3] = system: large crabgrass (Digitaria sanguinalis)
In short: as §1

[4] = system: goosegrass (Eleusine indica)
In short: as §1

[5] = system: downy bromegrass (Bromus tectorum)
In short: as §1

[6] = system: woolly cupgrass (Eriochloa villosa)
In short: as §1

[7] = system: green foxtail (Setaria viridis)
In short: as §1

[8] = system: velvetleaf (Abutilon theophrasti)
In short: as §1

[9] = system: lambsquarters (Chenopodium album)
In short: as §1

[10] = system: yellow nutsedge (Cyperus esculentus)
In short: as §1

[11] = system: wheat (Triticum aestivum)
In short: as §1

[12] = system: pigweed (Amaranthus retroflexus)
In short: as §1

[13] = 31 g ai/ha, 0 to 100 scale (0 no effect, 100 complete control)
[14] = 62 g ai/ha, scale 0 to 100 (0 no effect, 100 complete control)
[15] = 125 g ai/ha, scale 0 to 100 (0 no effect, 100 complete control)
[16] = 250 g ai/ha, scale 0 to 100 (0 no effect, 100 complete control), 13 to 15 days

## CC1(C)CC(=O)C(C(=O)c2cnc(-c3ccccc3)n(-c3ccccc3)c2=O)=C(O)C1 [Compound 225]
Kochia (Kochia scoparia); 16 g ai/ha, 0 to 100 scale
  Plant response rating, Kochia: 5
Kochia (Kochia scoparia); [13]
  Plant response rating, Kochia: 5
Kochia (Kochia scoparia); [14]
  Plant response rating, Kochia: 10
Kochia (Kochia scoparia); [15]
  Plant response rating, Kochia: 15
[1]; 16 g ai/ha, 0 to 100 scale
  Plant response rating, Foxtail, Giant: 75
[1]; [13]
  Plant response rating, Foxtail, Giant: 75
[1]; [14]
  Plant response rating, Foxtail, Giant: 80
[1]; [15]
  Plant response rating, Foxtail, Giant: 85
[2]; 16 g ai/ha, 0 to 100 scale
  Plant response rating, Johnsongrass: 20
[2]; [13]
  Plant response rating, Johnsongrass: 60
[2]; [14]
  Plant response rating, Johnsongrass: 75
[2]; [15]
  Plant response rating, Johnsongrass: 75
[3]; 16 g ai/ha, 0 to 100 scale
  Plant response rating, Crabgrass, Large: 70
[3]; [13]
  Plant response rating, Crabgrass, Large: 75
[3]; [14]
  Plant response rating, Crabgrass, Large: 85
[3]; [15]
  Plant response rating, Crabgrass, Large: 95
[4]; 16 g ai/ha, 0 to 100 scale
  Plant response rating, Goosegrass: 80
[4]; [13]
  Plant response rating, Goosegrass: 85
[4]; [14]
  Plant response rating, Goosegrass: 90
[4]; [15]
  Plant response rating, Goosegrass: 95
[5]; 16 g ai/ha, 0 to 100 scale
  Plant response rating, Bromegrass, Downy: 30
[5]; [13]
  Plant response rating, Bromegrass, Downy: 35
[5]; [14]
  Plant response rating, Bromegrass, Downy: 70
[5]; [15]
  Plant response rating, Bromegrass, Downy: 85
[6]; 16 g ai/ha, 0 to 100 scale
  Plant response rating, Cupgrass, Woolly: 70
[6]; [13]
  Plant response rating, Cupgrass, Woolly: 75
[6]; [14]
  Plant response rating, Cupgrass, Woolly: 75
[6]; [15]
  Plant response rating, Cupgrass, Woolly: 85
[7]; 16 g ai/ha, 0 to 100 scale
  Plant response rating, Foxtail, Green: 85
[7]; [13]
  Plant response rating, Foxtail, Green: 85
[7]; [14]
  Plant response rating, Foxtail, Green: 98
[7]; [15]
  Plant response rating, Foxtail, Green: 98
[8]; 16 g ai/ha, 0 to 100 scale
  Plant response rating, Velvetleaf: 80
[8]; [13]
  Plant response rating, Velvetleaf: 80
[8]; [14]
  Plant response rating, Velvetleaf: 90
[9]; 16 g ai/ha, 0 to 100 scale
  Plant response rating, Lambsquarters: 85
[9]; [13]
  Plant response rating, Lambsquarters: 85
[9]; [14]
  Plant response rating, Lambsquarters: 85
[9]; [15]
  Plant response rating, Lambsquarters: 98
[10]; 16 g ai/ha, 0 to 100 scale
  Plant response rating, Nutsedge, Yellow: 5
[10]; [13]
  Plant response rating, Nutsedge, Yellow: 10
[10]; [14]
  Plant response rating, Nutsedge, Yellow: 25
[10]; [15]
  Plant response rating, Nutsedge, Yellow: 25
[11]; 16 g ai/ha, 0 to 100 scale
  Plant response rating, Wheat: 20
[11]; [13]
  Plant response rating, Wheat: 30
[11]; [14]
  Plant response rating, Wheat: 40
[12]; 16 g ai/ha, 0 to 100 scale
  Plant response rating, Pigweed: 80
[12]; [13]
  Plant response rating, Pigweed: 90
[12]; [14]
  Plant response rating, Pigweed: 95

## CCCn1c(-c2ccsc2)ncc(C(=O)C2=C(O)C3CCC(C3)C2=O)c1=O (centres unmarked) [Compound 227]
Kochia (Kochia scoparia); [13]
  Plant response rating, Kochia: 70
Kochia (Kochia scoparia); [14]
  Plant response rating, Kochia: 75
Kochia (Kochia scoparia); [15]
  Plant response rating, Kochia: 85
Kochia (Kochia scoparia); [16]
  Plant response rating, Kochia: 100
[1]; [13]
  Plant response rating, Foxtail, Giant: 75
[1]; [14]
  Plant response rating, Foxtail, Giant: 80
[1]; [15]
  Plant response rating, Foxtail, Giant: 90
[1]; [16]
  Plant response rating, Foxtail, Giant: 98
[2]; [13]
  Plant response rating, Johnsongrass: 45
[2]; [14]
  Plant response rating, Johnsongrass: 60
[2]; [15]
  Plant response rating, Johnsongrass: 60
[2]; [16]
  Plant response rating, Johnsongrass: 65
[3]; [13]
  Plant response rating, Crabgrass, Large: 80
[3]; [14]
  Plant response rating, Crabgrass, Large: 80
[3]; [15]
  Plant response rating, Crabgrass, Large: 85
[3]; [16]
  Plant response rating, Crabgrass, Large: 90
[4]; [13]
  Plant response rating, Goosegrass: 75
[4]; [14]
  Plant response rating, Goosegrass: 75
[4]; [15]
  Plant response rating, Goosegrass: 75
[4]; [16]
  Plant response rating, Goosegrass: 80
[5]; [13]
  Plant response rating, Bromegrass, Downy: 0
[5]; [14]
  Plant response rating, Bromegrass, Downy: 0
[5]; [15]
  Plant response rating, Bromegrass, Downy: 0
[5]; [16]
  Plant response rating, Bromegrass, Downy: 25
[6]; [13]
  Plant response rating, Cupgrass, Woolly: 55
[6]; [14]
  Plant response rating, Cupgrass, Woolly: 75
[6]; [15]
  Plant response rating, Cupgrass, Woolly: 90
[6]; [16]
  Plant response rating, Cupgrass, Woolly: 95
[7]; [13]
  Plant response rating, Foxtail, Green: 50
[7]; [14]
  Plant response rating, Foxtail, Green: 90
[7]; [15]
  Plant response rating, Foxtail, Green: 90
[7]; [16]
  Plant response rating, Foxtail, Green: 90
[8]; [13]
  Plant response rating, Velvetleaf: 80
[8]; [14]
  Plant response rating, Velvetleaf: 80
[8]; [16]
  Plant response rating, Velvetleaf: 98
[9]; [13]
  Plant response rating, Lambsquarters: 90
[9]; [14]
  Plant response rating, Lambsquarters: 98
[9]; [15]
  Plant response rating, Lambsquarters: 98
[9]; [16]
  Plant response rating, Lambsquarters: 98
[10]; [13]
  Plant response rating, Nutsedge, Yellow: 10
[10]; [14]
  Plant response rating, Nutsedge, Yellow: 45
[10]; [15]
  Plant response rating, Nutsedge, Yellow: 65
[10]; [16]
  Plant response rating, Nutsedge, Yellow: 65
[11]; [13]
  Plant response rating, Wheat: 0
[11]; [14]
  Plant response rating, Wheat: 0
[11]; [16]
  Plant response rating, Wheat: 20
[12]; [13]
  Plant response rating, Pigweed: 80
[12]; [14]
  Plant response rating, Pigweed: 90
[12]; [16]
  Plant response rating, Pigweed: 100
